We go through 28 compounds from US20140045823A1 (Neurocrine Biosciences, Inc., priority 2012, published 2014).

Structures are written as SMILES.

This assay concerns the target T1, human GPR119 (Homo sapiens, UniProt Q8TDV5).
T1 construct: expression vector for human GPR119 cDNA (Acc. No. NP_848566); expressed in transfected cells; Min-6/hGPR119
T1 sequence (Q8TDV5 1-335): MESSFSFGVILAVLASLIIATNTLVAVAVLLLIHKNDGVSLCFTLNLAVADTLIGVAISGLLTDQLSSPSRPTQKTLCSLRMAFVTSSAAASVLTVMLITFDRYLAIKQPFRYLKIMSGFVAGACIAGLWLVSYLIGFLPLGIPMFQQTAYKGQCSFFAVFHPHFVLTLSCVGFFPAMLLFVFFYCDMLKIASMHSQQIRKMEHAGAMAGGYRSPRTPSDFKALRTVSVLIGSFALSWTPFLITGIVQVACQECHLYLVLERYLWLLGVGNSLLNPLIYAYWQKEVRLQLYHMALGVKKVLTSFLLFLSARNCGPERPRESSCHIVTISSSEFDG
The experiment in a line: AlphaScreen cAMP assay in MIN6 cells stably transfected with human GPR119. The format is cell-based. Conditions: Min-6/hGPR119 cells, 45 min at room temperature. An outline of the steps:
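MIN6 cells stably expressing human GPR119, seeded 10000/well and grown 24 h, were exposed to compound in pH 7.4 buffer with 0.5 mM IBMX, 0.1% BSA and 1% DMSO for 45 min at room temperature. Intracellular cAMP then measured by AlphaScreen.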
`CC(C)(C)OC(=O)N1CCC(N(C(=O)c2cnc(-c3cccc(C#N)c3)nc2)C2CC2)CC1` [Example 75, 4-{[2-(3-Cyano-phenyl)-pyrimidine-5-carbonyl]-cyclopropyl-amino}-piperidine-1-carboxylic acid tert-butyl ester] came in with a concentration for a half-maximal effect (EC50) of 170 nM. Then `CCOc1ccc(-c2ncc(C(=O)N(C3CC3)C3CCN(C(=O)OC(C)(C)C)CC3)cn2)cc1` [Example 76, 4-{Cyclopropyl-[2-(4-ethoxy-phenyl)-pyrimidine-5-carbonyl]-amino}-piperidine-1-carboxylic acid tert-butyl ester], with 71 nM; and `CC(C)(C)OC(=O)N1CCC(N(C(=O)c2cnc(-c3ccc(OC(F)(F)F)cc3)nc2)C2CC2)CC1` [Example 77, 4-{Cyclopropyl-[2-(4-trifluoromethoxy-phenyl)-pyrimidine-5-carbonyl]-amino}-piperidine-1-carboxylic acid tert-butyl ester], with 55 nM; and `CC(C)(C)OC(=O)N1CCC(N(C(=O)c2cnc(-c3ccc(CC#N)cc3)nc2)C2CC2)CC1` [Example 78, 4-{[2-(4-Cyanomethyl-phenyl)-pyrimidine-5-carbonyl]-cyclopropyl-amino}-piperidine-1-carboxylic acid tert-butyl ester], with 9 nM. Then `CC(C)(C)OC(=O)N1CCC(N(C(=O)c2cnc(-c3ccc(NS(C)(=O)=O)cc3)nc2)C2CC2)CC1` [Example 79, 4-{Cyclopropyl-[2-(4-methanesulfonylamino-phenyl)-pyrimidine-5-carbonyl]-amino}-piperidine-1-carboxylic acid tert-butyl ester], with 210 nM; and `CC(C)(C)OC(=O)N1CCC(N(C(=O)c2cnc(-c3ccc(S(C)(=O)=O)cc3)nc2)C2CC2)CC1` [Example 80, 4-{Cyclopropyl-[2-(4-methanesulfonyl-phenyl)-pyrimidine-5-carbonyl]-amino}-piperidine-1-carboxylic acid tert-butyl ester], with 75 nM. `CC(C)(C)OC(=O)N1CCC(N(C(=O)c2cnc(-c3ccc(CO)cc3)nc2)C2CC2)CC1` [Example 81, 4-{Cyclopropyl-[2-(4-hydroxymethyl-phenyl)-pyrimidine-5-carbonyl]-amino}-piperidine-1-carboxylic acid tert-butyl ester] registered an EC50 of 98 nM. Then `COc1ncc(-c2ncc(C(=O)N(C3CC3)C3CCN(C(=O)OC(C)(C)C)CC3)cn2)cn1` [Example 82, 4-[Cyclopropyl-(2′-methoxy-[2,5′]bipyrimidinyl-5-carbonyl)-amino]-piperidine-1-carboxylic acid tert-butyl ester], with 65 nM; and `CC(C)(C)OC(=O)N1CCC(N(C(=O)c2cnc(-c3ccc(C#N)nc3)nc2)C2CC2)CC1` [Example 83, 4-{[2-(6-Cyano-pyridin-3-yl)-pyrimidine-5-carbonyl]-cyclopropyl-amino}-piperidine-1-carboxylic acid tert-butyl ester], with 15 nM. Then `CC(C)(C)OC(=O)N1CCC(N(C(=O)c2cnc(-c3ccc(N4CCOCC4)cc3)nc2)C2CC2)CC1` [Example 84, 4-{Cyclopropyl-[2-(4-morpholin-4-yl-phenyl)-pyrimidine-5-carbonyl]-amino}-piperidine-1-carboxylic acid tert-butyl ester], with 140 nM; and `COc1cc(-c2ncc(C(=O)N(C3CC3)C3CCN(C(=O)OC(C)(C)C)CC3)cn2)ccn1` [Example 85, 4-{Cyclopropyl-[2-(2-methoxy-pyridin-4-yl)-pyrimidine-5-carbonyl]-amino}-piperidine-1-carboxylic acid tert-butyl ester], with 46 nM; and `CCNC(=O)c1ccc(-c2ncc(C(=O)N(C3CC3)C3CCN(C(=O)OC(C)(C)C)CC3)cn2)cc1` [Example 86, 4-{Cyclopropyl-[2-(4-ethylcarbamoyl-phenyl)-pyrimidine-5-carbonyl]-amino}-piperidine-1-carboxylic acid tert-butyl ester], with 171 nM. Next, `CC(=O)NCc1ccc(-c2ncc(C(=O)N(C3CC3)C3CCN(C(=O)OC(C)(C)C)CC3)cn2)cc1` [Example 87, 4-({2-[4-(Acetylamino-methyl)-phenyl]-pyrimidine-5-carbonyl}-cyclopropyl-amino)-piperidine-1-carboxylic acid tert-buyl ester]: 443 nM. In the case of `CC(C)(C)OC(=O)N1CCC(N(C(=O)c2cnc(-c3ccc(S(N)(=O)=O)cc3)nc2)C2CC2)CC1` [Example 88, 4-{Cyclopropyl-[2-(4-sulfamoyl-phenyl)-pyrimidine-5-carbonyl]-amino}-piperidine-1-carboxylic acid tert-butyl ester], the EC50 stood at 349 nM. For `Cc1ccc(-c2ncc(C(=O)N(C3CC3)C3CCN(C(=O)OC(C)(C)C)CC3)cn2)cn1` [Example 89, 4-{Cyclopropyl-[2-(6-methyl-pyridin-3-yl)-pyrimidine-5-carbonyl]-amino}-piperidine-1-carboxylic acid tert-butyl ester], the midpoint of the response, the EC50, lay at 240 nM.

The compound `CC(C)(C)OC(=O)N1CCC(N(C(=O)c2cnc(-c3ccc(C#N)c(F)c3)nc2)C2CC2)CC1` [Example 90, 4-{[2-(4-Cyano-3-fluoro-phenyl)-pyrimidine-5-carbonyl]-cyclopropyl-amino}-piperidine-1-carboxylic acid tert-butyl ester] had an EC50 of 8 nM. Then `CNS(=O)(=O)c1ccc(-c2ncc(C(=O)N(C3CC3)C3CCN(C(=O)OC(C)(C)C)CC3)cn2)cc1` [Example 92, 4-{Cyclopropyl-[2-(4-methanesulfamoyl-phenyl)-pyrimidine-5-carbonyl]-amino}-piperidine-1-carboxylic acid tert-butyl ester], with 151 nM; and `CN(C)c1ccc(-c2ncc(C(=O)N(C3CC3)C3CCN(C(=O)OC(C)(C)C)CC3)cn2)cn1` [Example 93, 4-{Cyclopropyl-[2-(6-dimethylamino-pyridin-3-yl)-pyrimidine-5-carbonyl]-amino}-piperidine-1-carboxylic acid tert-butyl ester], with 209 nM.

For the compound `CC(C)(C)OC(=O)N1CCC(N(C(=O)c2cnc(-n3cnc(CO)c3)nc2)C2CC2)CC1` [Example 94, 4-{Cyclopropyl-[2-(4-hydroxymethyl-imidazol-1-yl)-pyrimidine-5-carbonyl]-amino}-piperidine-1-carboxylic acid tert-butyl ester], the EC50 was 349 nM.

As to `Cc1cnn(-c2ncc(C(=O)N(C3CC3)C3CCN(C(=O)OC(C)(C)C)CC3)cn2)c1` [Example 95, 4-{Cyclopropyl-[2-(4-methyl-pyrazol-1-yl)-pyrimidine-5-carbonyl]-amino}-piperidine-1-carboxylic acid tert-butyl ester], the EC50 was 229 nM. This EC50 lies about 1.5-fold lower than the previous one. `Cc1ccn(-c2ncc(C(=O)N(C3CC3)C3CCN(C(=O)OC(C)(C)C)CC3)cn2)n1` [Example 96, 4-{Cyclopropyl-[2-(3-methyl-pyrazol-1-yl)-pyrimidine-5-carbonyl]-amino}-piperidine-1-carboxylic acid tert-butyl ester] returned a concentration for a half-maximal effect (EC50) of 192 nM. Then `CCc1nccn1-c1ncc(C(=O)N(C2CC2)C2CCN(C(=O)OC(C)(C)C)CC2)cn1` [Example 97, 4-{Cyclopropyl-[2-(2-ethyl-imidazol-1-yl)-pyrimidine-5-carbonyl]-amino}-piperidine-1-carboxylic acid tert-butyl ester], with 59 nM; and `Cc1cn(-c2ncc(C(=O)N(C3CC3)C3CCN(C(=O)OC(C)(C)C)CC3)cn2)c(C)n1` [Example 98, 4-{Cyclopropyl-[2-(2,4-dimethyl-imidazol-1-yl)-pyrimidine-5-carbonyl]-amino}-piperidine-1-carboxylic acid tert-butyl ester], with 71 nM; and `Cc1nccn1-c1ncc(C(=O)N(C2CC2)C2CCN(C(=O)OC(C)(C)C)CC2)cn1` [Example 99, 4-{Cyclopropyl-[2-(2-methyl-imidazol-1-yl)-pyimidine-5-carbonyl]-amino}-piperidine-1-carboxylic acid tert-butyl ester], with 37 nM. The compound `CC(C)(C)OC(=O)N1CCC(N(C(=O)c2cnc(-n3cnnc3)nc2)C2CC2)CC1` [Example 100, 4-[Cyclopropyl-(2-[1,2,4]triazol-4-yl-pyrimidine-5-carbonyl)-amino]-piperidine-1-carboxylic acid tert-butyl ester] registered an EC50 of 810 nM. This EC50 lies about 22-fold higher than the previous one. Compound `CC(C)(CO)CNC(=O)c1ccc(-c2ncc(C(=O)N(C3CC3)C3CCN(C(=O)OC(C)(C)C)CC3)cn2)c(F)c1` [Example 101, 4-(Cyclopropyl-{2-[2-fluoro-4-(3-hydroxy-2,2-dimethyl-propylcarbamoyl)-phenyl]-pyrimidine-5-carbonyl}-amino)-piperidine-1-carboxylic acid tert-butyl ester] displayed an EC50 of 441 nM. Next, `CCOCCNC(=O)c1ccc(-c2ncc(C(=O)N(C3CC3)C3CCN(C(=O)OC(C)(C)C)CC3)cn2)cc1F` [Example 102, 4-(Cyclopropyl-{2-[4-(2-ethoxy-ethylcarbamoyl)-3-fluoro-phenyl]-pyrimidine-5-carbonyl}-amino)-piperidine-1-carboxylic acid tert-butyl ester]: 109 nM. In turn, `CC(C)(C)OC(=O)N1CCC(N(C(=O)c2cnc(-c3ccc(C(=O)NC4CCCOC4)c(F)c3)nc2)C2CC2)CC1` (stereo not shown) [Example 103, 4-(Cyclopropyl-{2-[3-fluoro-4-(tetrahydro-pyran-3-ylcarbamoyl)-phenyl]-pyrimidine-5-carbonyl}-amino)-piperidine-1-carboxylic acid tert-butyl ester] displayed an EC50 of 168 nM.
